Assay results as given in US10716769B2 (GUANGZHOU JTREAT BIOSCI. LTD., priority 2015, dated 2020).
≈ marks a conversion by molar mass, not a printed value.

Assays:
HPV 6/11 Virus = assay: HPV detection via fluorescence quantitative PCR in genital warts tissue homogenate; set-up: species or system human papillomavirus; details: for HPV 6/11 virus detection, in words: 24 hours after addition into the tissue homogenate of genital warts; for HPV 6/11 Virus: genital warts tissue homogenate, 37° C., 24 hours, FQ-PCR
Source text: (§1) The aforesaid compounds and/or compositions containing the same are effective in killing and inhibiting HPV type 6/11 and type 16/18, which can be used for the preparation of drugs for preventing and treating viral infection of HPV, preventing and treating genital warts, flat warts, common warts, vaginitis, cervicitis and cervical erosion, cervical cancer, esophageal cancer and other cancers caused by HPV. The present invention observes the effect of active ingredients and products by the detection of the change in the amount of the HPV virus through the real-time quantitative PCR. Such method has been applied in several publications (Youling C A I, et al., Chinese STD/AIDS, 2002, 8: 2,108; Yuansheng W U, Ruijiang F A N, et al., Practical Application of Integrated Chinese and Western Medicine in Clinics, 2003, 3: 2,1).
(§2) The microemulsion obtained in example 1 is used as a test sample and saline for blank control.
(§3) The standard clinical genital warts specimens from a variety of patients after being cut off are washed with saline for removing bloods, and are cut into pieces under aseptic conditions, added with saline in 3 times of their volumes to be uniformly mixed, grinded into homogenate and placed at −40° C. for use.
(§4) Each test sample drug microemulsion and the saline of 50 μl for each are respectively added with 50 μl the genital warts tissue homogenate, and incubated at 37° C. for 24 hours; tests are performed according to the operation procedure provided by the HPV6, 11 and 16, 18 type FQ-PCR diagnostic kits provided by Da'an Gene Diagnostic Center. 0.2 ml of DNA extracted by the conventional alkaline lysis method is put into the thin-walled reaction tube, and simultaneously added with primers, F-PROBE, DNTP, DNA polymerase, buffers and the like in a certain concentration; ABI PRISM™ 7700 fluorescence quantitative PCR amplifier is used to repeat 40 circulations each with 45 s at 93° C. and 120 s at 55° C. after predegeneration at 93° C. for 2 mins; the quantitative results are automatically analyzed by the computer software to calculate the quantitative results of the initial copy number. The data are shown in Table 2 (completed by Da'an Gene Clinical Test Center).

HPV16/18 = assay: as above; set-up: species or system human papillomavirus; details: for HPV16/18 virus detection, in words: 24 hours after addition into the tissue homogenate of genital warts; for HPV16/18: genital warts tissue homogenate, 37° C., 24 hours, FQ-PCR
Source text: as §1, §2, §3, §4

HIV-1 integrase = target: T1, HIV-1 integrase (Human immunodeficiency virus type 1 group M subtype B, UniProt P04585); assay: Test of sample inhibition to HIV-1 integrase (ELISA, strand transfer); type: biochemical
T1 construct: purified HIV-1 integrase is added to donor substrates coated 96-well plate; made in house
Description: The half-inhibitory concentration IC50 for 3′ excision of the substrate and the strand transfer is in the range of 88.92-10.20 μg/ml, in which the best inhibitory activity of the compound is higher than that of the monomer compound of hydroxybenzoic acid. The mechanism of the HIV-1 integrase is a two-step reaction: 1) 3′ Processing: the integrase binds to the specific sequences of the long terminal repeat region (LTR) of the proviral DNA to form a stable complex, then the endonucleotides of 3′ end of nucleoside is processed, and the GT dinucleotide of the sequence . . . […] Thus, the activity of the integrase inhibitor is embodied in inhibiting the excision of the 3′end of the viral DNA or the strand transfer, and is represented by a half-inhibitory concentration IC50.
In vitro integrase test, 30 synthetic oligonucleotides are used as donor substrates, 20 synthetic oligonucleotides are used as target substrates. Purified HIV-1 integrase is added to donor substrates coated 96-well plate, ELISA reaction is performed, the product of the strand transfer of target DNA is detected, color development is conducted by biotin-labeled alkaline phosphatase system, and the microplate reader is used to measure the OD value.
First, inhibitors of the enzyme may be screened by adding a sample to the reaction system. Before use, the sample is prepared with DMSO to an appropriate concentration, and then is diluted 5 times at 4 dilutions. The sample after dilution is added into the donor substrate coated 96-well plate, and then added to the reaction Buffer containing the genetically engineered target enzyme and the biotin-target substrate, incubated under optimal reaction conditions, and colored by biotin-labeled alkaline phosphatase system, and the OD value for absorbance value at 405 nm is measured.
30 synthetic oligonucleotides are used as donor substrates, 20 synthetic oligonucleotides are used as target substrates, purified HIV-1 integrase is added to donor substrates coated 96-well plate, ELISA reaction is performed, the product of the strand transfer of target DNA is detected, color development is conducted by biotin-labeled alkaline phosphatase system, and the OD value is measured by a microplate reader. The addition of samples to the reaction system can be used to screen inhibitors for the enzyme.
1. HIV-1 IN: it is extracted and saved by Chinese National New Drug Screening Center and Institute of Pharmaceutical Biotechnology under Chinese Academy of Medical Sciences.
2. Sample Treatment: 10 samples A1-A10 dissolved into DMSO prior to use are prepared into suitable concentrations, and then diluted 5 times at 4 dilutions. Donor substrate and target substrate are from Shanghai Biochemical Synthesis.
3. Method for Test: the samples after dilution are added into the donor substrate coated 96-well plate, then added to the reaction Buffer containing the genetically engineered target enzyme and the biotin-target substrate, incubated under optimal reaction conditions, and colored by biotin-labeled alkaline phosphatase system, and the OD value for absorbance value at 405 nm is measured.

HSV-I, VR733 strain = assay: Inhibition of cytopathic effects of Vero cells caused by herpes virus type I; type: cell-based; details: Human alphaherpesvirus 1; Vero cells, CPE 48 hours, Reed-Muench; read-out: IC50 Against HSV-1
Source text: (§5) Vero cells (kidney cells of African green monkey) are used as viral hosts to test the inhibition degree of the samples to the cytopathic effects of Vero cells caused by herpes virus type I and type II.
(§6) Vero cells (kidney cells of African green monkey) are used as viral hosts to test the inhibition degree of the samples to cytopathic effects of the Vero cell caused by herpes virus type I and type II.
(§7) 1. Virus strains: HSV-I, VR733 strain, and HSV-II, SAV strain, which both are provided by ATCC.
(§8) 2. Sample treatment: the sample is dissolved in DMSO at an appropriate concentration before use, and diluted with the culture medium 3 times at a total of 8 dilutions for test.
(§9) 3. Positive control drug: acyclovir (ACV) produced by the Hubei Ke Yi pharmaceutical factory.

HSV-II, SAV strain = assay: Inhibition of cytopathic effects of Vero cells caused by herpes virus type II; type: cell-based; details: Human alphaherpesvirus 2; Vero cells, CPE 48 hours, Reed-Muench; read-out: IC50 Against HSV-II
Source text: as §5, §6, §7, §8, §9

SMILES | HPV 6/11 virus detection, in words (HPV 6/11 Virus) | HPV 6/11 Virus (HPV 6/11 Virus) | HPV16/18 virus detection, in words (HPV16/18) | HPV16/18 (HPV16/18) | IC50 (HIV-1 integrase) | IC50 (HSV-I, VR733 strain) | IC50 (HSV-II, SAV strain)
O=C(c1cc(O)c(O)cc1O)c1ccc(O)c(O)c1O | can no longer be detected | 0 copy/ml | can no longer be detected | 0 copy/ml | 37.8 µM |  | 
O=C(c1ccc(O)c(O)c1O)c1ccc(O)c(O)c1O [2,3,4,2′,3′,4′-hexahydroxybenzophenone] | can no longer be detected | 0 copy/ml | can no longer be detected | 0 copy/ml | 32.8 µM | 28.7 µg/mL (≈ 103 µM) | 10.8 µg/mL (≈ 39 µM)
O=C(c1ccccc1)c1ccc(O)c(O)c1O [2,3,4-trihydroxybenzophenone] | can no longer be detected | 0 copy/ml | can no longer be detected | 0 copy/ml | 52.6 µM | 28.7 µg/mL (≈ 125 µM) | 28.7 µg/mL (≈ 125 µM)
O=C(c1ccc(O)cc1O)c1ccc(O)cc1O [2,4,2′,4′-tetrahydroxybenzophenone] | can no longer be detected | 0 copy/ml | can no longer be detected | 0 copy/ml | 45.6 µM | 28.7 µg/mL (≈ 117 µM) | 28.7 µg/mL (≈ 117 µM)
